Test results published in PMC8449129, “Single tracer-based protocol for broad-spectrum kinase profiling in live cells with NanoBRET” (STAR Protocols, 2021).

Tests used:
LTK = LTK (Homo sapiens, UniProt P29376); assay: cell-based; design: species or system HEK293; NanoBRET live-cell target engagement; % occupancy from displacement of tracer K10 on NanoLuc-kinase fusions, mean n=3; conditions: D=C; E=100; % occupancy, tracer K10 displacement; 1 µM; binder
Procedure: (§1) • 18. Prepare 10× test compounds in OptiMEM • a. Dilute the test compound to 1000× in DMSO (or the test compound solvent). […] Add 10μL per well of 10× test compound or 10μL of the DMSO control to the 96-well plates containing cells with 1× tracer. Mix on orbital shaker for 15 s at 900 rpm. • 20. Incubate the plate at 37°C + 5% CO2 incubator for 2hr. Allow plate to cool to RT for ∼15 min, then proceed to NanoBRET^TM Assay section below. • 21. Immediately before the BRET measurements, prepare 3× Complete NanoBRET^TM Nano-Glo® Substrate in OptiMEM without serum or phenol red. […] Mix gently by inverting 5–10 times in a conical tube. (The final concentration of Extracellular NanoLuc inhibitor in the 3× solution is 60 μM, for a working concentration of 20 μM.) • a. Note: 3× solutions should be used within 1.5 h after preparation. • 22. […] Incubate 2–3 min at RT. Following addition of NanoBRET^TM Nano-Glo® Substrate, measure donor emission (e.g., 450 nm) and acceptor emission (e.g., 610 nm or 630 nm) using a NanoBRET™-compatible luminometer. Fractional occupancy Quantitation • 2. Determine Fractional Occupancy with the following equation; % Occupancy = [1 – (X – Z)/( Y – Z)]∗100 • Where: • X = BRET in the presence of the test compound and tracer, • Y = BRET in the presence of the 100% BRET Control (Tracer + DMSO) • Z = BRET for the Zero BRET Control, e.g., • a. […]

STK33 = STK33 (Homo sapiens, UniProt Q9BYT3); assay: cell-based; design: species or system HEK293; NanoBRET live-cell target engagement; % occupancy from displacement of tracer K10 on NanoLuc-kinase fusions, mean n=3; conditions: HEK293; D=N; E=250; % occupancy, tracer K10 displacement
Procedure: as §1

NTRK2 = target: T1, NTRK2 (Homo sapiens, UniProt Q16620); assay: NanoBRET target engagement, Tracer K10 displacement in live HEK293 cells; type: cell-based; conditions: […] h, […] C, n = […]
T1 construct: full-length kinase, C-terminal NanoLuc fusion, transfected HEK293 cells

EPHA6 = target: T2, EPHA6 (Homo sapiens, UniProt Q9UF33); assay: as above; type: cell-based; conditions: […] h, […] C, n = […]
T2 construct: full-length kinase, C-terminal NanoLuc fusion, transfected HEK293 cells
From the text: NanoBRET target engagement, Tracer K10 displacement in live HEK293 cells on EPHA6

AURKC = target: T3, AURKC (Homo sapiens, UniProt Q9UQB9); assay: as above; type: cell-based; conditions: […] h, […] C, n = […]
T3 construct: full-length kinase, C-terminal NanoLuc fusion, transfected HEK293 cells
From the text: NanoBRET target engagement, Tracer K10 displacement in live HEK293 cells on AURKC

STK17B = STK17B (Homo sapiens, UniProt O94768); assay: cell-based; design: NanoBRET live-cell target engagement; % occupancy from displacement of tracer K10 on NanoLuc-kinase fusions, mean n=3; conditions: HEK293, read-out: % inhibition
Procedure, shortened: (§2)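 Live-cell NanoBRET target engagement: cells expressing kinase–NanoLuc fusion with tracer treated with compound 2 h at 37 °C, 5% CO2. BRET read from donor (450 nm) and acceptor (610/630 nm) emission with 20 μM extracellular NanoLuc inhibitor; % occupancy calculated relative to tracer+DMSO and zero-BRET controls.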

MAP3K9 = MAP3K9 (Homo sapiens, UniProt P80192); assay: cell-based; design: NanoBRET live-cell target engagement; % occupancy from displacement of tracer K10 on NanoLuc-kinase fusions, mean n=3; conditions: HEK293, read-out: % inhibition
Procedure, shortened: as §2

LCK = LCK (Homo sapiens, UniProt P06239); assay: cell-based; design: NanoBRET live-cell target engagement; % occupancy from displacement of tracer K10 on NanoLuc-kinase fusions, mean n=3; conditions: HEK293, read-out: % inhibition
Procedure, shortened: as §2

WEE1 = WEE1 (Homo sapiens, UniProt P30291); assay: cell-based; design: NanoBRET live-cell target engagement; % occupancy from displacement of tracer K10 on NanoLuc-kinase fusions, mean n=3; conditions: HEK293, read-out: % inhibition
Procedure, shortened: as §2

FGFR2 = FGFR2 (Homo sapiens, UniProt P21802); assay: cell-based; design: NanoBRET live-cell target engagement; % occupancy from displacement of tracer K10 on NanoLuc-kinase fusions, mean n=3; conditions: HEK293, read-out: % inhibition
Procedure, shortened: as §2

CDK7 = CDK7 (Homo sapiens, UniProt P50613); assay: cell-based; design: NanoBRET live-cell target engagement; % occupancy from displacement of tracer K10 on NanoLuc-kinase fusions, mean n=3; conditions: HEK293, read-out: % inhibition
Procedure, shortened: as §2

TNK2 = TNK2 (Homo sapiens, UniProt Q07912); assay: cell-based; design: NanoBRET live-cell target engagement; % occupancy from displacement of tracer K10 on NanoLuc-kinase fusions, mean n=3; conditions: HEK293, read-out: % inhibition
Procedure, shortened: as §2

PRKACB = PRKACB (Homo sapiens, UniProt P22694); assay: cell-based; design: NanoBRET live-cell target engagement; % occupancy from displacement of tracer K10 on NanoLuc-kinase fusions, mean n=3; conditions: HEK293, read-out: % inhibition
Procedure, shortened: as §2

STK38L = STK38L (Homo sapiens, UniProt Q9Y2H1); assay: cell-based; design: NanoBRET live-cell target engagement; % occupancy from displacement of tracer K10 on NanoLuc-kinase fusions, mean n=3; conditions: HEK293, read-out: % inhibition
Procedure, shortened: as §2

PLK2 = PLK2 (Homo sapiens, UniProt Q9NYY3); assay: cell-based; design: NanoBRET live-cell target engagement; % occupancy from displacement of tracer K10 on NanoLuc-kinase fusions, mean n=3; conditions: HEK293, read-out: % inhibition
Procedure, shortened: as §2

ABL2 = ABL2 (Homo sapiens, UniProt P42684); assay: cell-based; design: NanoBRET live-cell target engagement; % occupancy from displacement of tracer K10 on NanoLuc-kinase fusions, mean n=3; conditions: HEK293, read-out: % inhibition
Procedure, shortened: as §2

Chain of STK17B (O94768 whole entry, the tested form may be a part): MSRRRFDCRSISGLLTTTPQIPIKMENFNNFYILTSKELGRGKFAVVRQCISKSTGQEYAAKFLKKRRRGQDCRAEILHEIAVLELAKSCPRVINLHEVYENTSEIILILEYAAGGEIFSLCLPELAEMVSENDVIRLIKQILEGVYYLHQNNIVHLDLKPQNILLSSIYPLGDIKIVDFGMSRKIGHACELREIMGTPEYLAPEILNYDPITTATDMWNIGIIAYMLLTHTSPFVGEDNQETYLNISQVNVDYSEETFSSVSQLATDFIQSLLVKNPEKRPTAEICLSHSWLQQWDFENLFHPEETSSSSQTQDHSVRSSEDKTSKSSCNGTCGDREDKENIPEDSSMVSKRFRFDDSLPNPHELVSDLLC
Chain of WEE1 (P30291 whole entry, the tested form may be a part): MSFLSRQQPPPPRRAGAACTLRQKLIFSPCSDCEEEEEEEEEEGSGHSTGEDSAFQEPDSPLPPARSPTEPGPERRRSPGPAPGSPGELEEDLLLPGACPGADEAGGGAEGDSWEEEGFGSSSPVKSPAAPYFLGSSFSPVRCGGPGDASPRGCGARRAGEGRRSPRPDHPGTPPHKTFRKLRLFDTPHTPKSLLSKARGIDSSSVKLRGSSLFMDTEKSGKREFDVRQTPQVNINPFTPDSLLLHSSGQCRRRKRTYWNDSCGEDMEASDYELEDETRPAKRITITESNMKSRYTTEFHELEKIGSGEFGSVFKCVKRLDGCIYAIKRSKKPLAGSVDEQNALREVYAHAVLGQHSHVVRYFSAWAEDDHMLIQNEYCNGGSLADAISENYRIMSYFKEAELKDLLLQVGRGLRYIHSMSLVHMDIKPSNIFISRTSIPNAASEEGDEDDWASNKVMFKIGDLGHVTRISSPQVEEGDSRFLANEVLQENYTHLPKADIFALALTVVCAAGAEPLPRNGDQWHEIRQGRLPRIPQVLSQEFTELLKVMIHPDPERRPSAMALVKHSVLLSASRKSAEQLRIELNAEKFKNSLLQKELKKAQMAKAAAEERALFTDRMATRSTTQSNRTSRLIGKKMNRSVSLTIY
Chain of FGFR2 (P21802 whole entry, the tested form may be a part): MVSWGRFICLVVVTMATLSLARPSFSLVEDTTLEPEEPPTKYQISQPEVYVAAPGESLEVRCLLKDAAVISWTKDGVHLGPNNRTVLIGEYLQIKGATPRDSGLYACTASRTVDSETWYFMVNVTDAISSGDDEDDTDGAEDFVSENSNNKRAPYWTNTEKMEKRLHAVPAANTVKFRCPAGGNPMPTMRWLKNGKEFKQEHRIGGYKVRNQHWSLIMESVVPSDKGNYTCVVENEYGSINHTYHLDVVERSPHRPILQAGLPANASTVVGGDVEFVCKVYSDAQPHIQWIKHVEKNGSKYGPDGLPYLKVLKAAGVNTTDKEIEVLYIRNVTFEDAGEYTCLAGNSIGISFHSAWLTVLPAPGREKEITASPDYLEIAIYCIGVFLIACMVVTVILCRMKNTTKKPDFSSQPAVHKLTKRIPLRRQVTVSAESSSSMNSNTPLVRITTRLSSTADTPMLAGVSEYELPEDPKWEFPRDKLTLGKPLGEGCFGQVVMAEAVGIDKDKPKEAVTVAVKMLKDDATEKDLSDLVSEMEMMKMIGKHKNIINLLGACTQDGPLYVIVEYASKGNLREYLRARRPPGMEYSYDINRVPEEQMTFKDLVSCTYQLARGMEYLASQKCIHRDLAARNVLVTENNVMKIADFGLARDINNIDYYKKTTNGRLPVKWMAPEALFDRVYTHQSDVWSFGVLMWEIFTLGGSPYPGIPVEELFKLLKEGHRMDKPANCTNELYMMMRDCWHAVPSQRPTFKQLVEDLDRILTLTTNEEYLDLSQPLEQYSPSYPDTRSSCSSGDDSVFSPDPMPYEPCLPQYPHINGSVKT
Chain of PLK2 (Q9NYY3 whole entry, the tested form may be a part): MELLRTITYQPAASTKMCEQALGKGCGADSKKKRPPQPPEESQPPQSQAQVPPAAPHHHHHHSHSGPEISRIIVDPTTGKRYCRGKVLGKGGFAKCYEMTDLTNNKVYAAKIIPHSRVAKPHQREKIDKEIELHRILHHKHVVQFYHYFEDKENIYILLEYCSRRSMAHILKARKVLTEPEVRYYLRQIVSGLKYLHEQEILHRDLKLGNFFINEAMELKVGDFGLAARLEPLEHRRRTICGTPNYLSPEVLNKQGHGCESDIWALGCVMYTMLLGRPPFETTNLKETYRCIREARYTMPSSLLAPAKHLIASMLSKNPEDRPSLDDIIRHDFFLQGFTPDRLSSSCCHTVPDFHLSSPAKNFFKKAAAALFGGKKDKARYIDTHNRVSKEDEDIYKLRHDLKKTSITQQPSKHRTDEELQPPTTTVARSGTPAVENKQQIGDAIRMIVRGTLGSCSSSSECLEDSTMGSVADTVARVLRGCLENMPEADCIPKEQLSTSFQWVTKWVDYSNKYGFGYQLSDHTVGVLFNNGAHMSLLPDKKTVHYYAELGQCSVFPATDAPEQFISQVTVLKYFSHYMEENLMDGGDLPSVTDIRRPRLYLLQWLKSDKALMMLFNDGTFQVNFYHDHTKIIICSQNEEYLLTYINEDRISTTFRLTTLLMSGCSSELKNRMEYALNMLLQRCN
Chain of LTK (P29376 whole entry, the tested form may be a part): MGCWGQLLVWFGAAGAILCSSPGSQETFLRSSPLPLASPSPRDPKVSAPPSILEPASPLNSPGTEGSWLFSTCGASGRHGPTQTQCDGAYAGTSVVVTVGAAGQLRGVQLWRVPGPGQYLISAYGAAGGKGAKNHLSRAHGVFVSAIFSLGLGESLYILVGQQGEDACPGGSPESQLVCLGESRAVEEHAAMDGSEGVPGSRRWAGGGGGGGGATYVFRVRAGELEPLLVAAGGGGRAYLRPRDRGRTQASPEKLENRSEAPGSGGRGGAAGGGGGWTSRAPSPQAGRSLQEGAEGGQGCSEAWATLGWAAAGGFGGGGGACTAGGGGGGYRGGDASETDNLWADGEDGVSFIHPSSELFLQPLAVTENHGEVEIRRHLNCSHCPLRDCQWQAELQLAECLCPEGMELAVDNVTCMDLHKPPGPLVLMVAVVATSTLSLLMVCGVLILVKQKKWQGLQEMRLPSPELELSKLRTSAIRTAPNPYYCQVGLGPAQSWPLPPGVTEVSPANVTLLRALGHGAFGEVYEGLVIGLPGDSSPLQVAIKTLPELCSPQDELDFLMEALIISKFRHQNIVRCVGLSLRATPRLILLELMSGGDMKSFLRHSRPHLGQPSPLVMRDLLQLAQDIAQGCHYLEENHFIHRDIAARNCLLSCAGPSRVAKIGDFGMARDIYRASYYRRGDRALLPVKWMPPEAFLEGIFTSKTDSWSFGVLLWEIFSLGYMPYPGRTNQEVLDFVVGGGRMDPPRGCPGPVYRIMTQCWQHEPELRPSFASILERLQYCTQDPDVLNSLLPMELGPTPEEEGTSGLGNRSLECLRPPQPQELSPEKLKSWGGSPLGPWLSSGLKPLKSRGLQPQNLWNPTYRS
Chain of LCK (P06239 whole entry, the tested form may be a part): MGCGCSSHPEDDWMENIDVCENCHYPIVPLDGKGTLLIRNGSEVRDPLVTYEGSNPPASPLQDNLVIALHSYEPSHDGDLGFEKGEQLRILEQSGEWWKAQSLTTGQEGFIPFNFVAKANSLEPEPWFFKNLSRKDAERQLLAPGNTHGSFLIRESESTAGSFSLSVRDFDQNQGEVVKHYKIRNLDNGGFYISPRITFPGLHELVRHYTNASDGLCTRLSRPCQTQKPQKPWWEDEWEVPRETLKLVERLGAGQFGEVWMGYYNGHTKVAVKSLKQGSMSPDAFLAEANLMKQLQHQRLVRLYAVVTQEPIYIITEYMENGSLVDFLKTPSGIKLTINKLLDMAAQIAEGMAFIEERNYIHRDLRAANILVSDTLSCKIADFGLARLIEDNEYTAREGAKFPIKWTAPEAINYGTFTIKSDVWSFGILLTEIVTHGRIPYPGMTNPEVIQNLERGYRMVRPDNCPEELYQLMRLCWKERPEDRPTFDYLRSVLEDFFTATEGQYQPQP
T2 sequence (Q9UF33 23-1036): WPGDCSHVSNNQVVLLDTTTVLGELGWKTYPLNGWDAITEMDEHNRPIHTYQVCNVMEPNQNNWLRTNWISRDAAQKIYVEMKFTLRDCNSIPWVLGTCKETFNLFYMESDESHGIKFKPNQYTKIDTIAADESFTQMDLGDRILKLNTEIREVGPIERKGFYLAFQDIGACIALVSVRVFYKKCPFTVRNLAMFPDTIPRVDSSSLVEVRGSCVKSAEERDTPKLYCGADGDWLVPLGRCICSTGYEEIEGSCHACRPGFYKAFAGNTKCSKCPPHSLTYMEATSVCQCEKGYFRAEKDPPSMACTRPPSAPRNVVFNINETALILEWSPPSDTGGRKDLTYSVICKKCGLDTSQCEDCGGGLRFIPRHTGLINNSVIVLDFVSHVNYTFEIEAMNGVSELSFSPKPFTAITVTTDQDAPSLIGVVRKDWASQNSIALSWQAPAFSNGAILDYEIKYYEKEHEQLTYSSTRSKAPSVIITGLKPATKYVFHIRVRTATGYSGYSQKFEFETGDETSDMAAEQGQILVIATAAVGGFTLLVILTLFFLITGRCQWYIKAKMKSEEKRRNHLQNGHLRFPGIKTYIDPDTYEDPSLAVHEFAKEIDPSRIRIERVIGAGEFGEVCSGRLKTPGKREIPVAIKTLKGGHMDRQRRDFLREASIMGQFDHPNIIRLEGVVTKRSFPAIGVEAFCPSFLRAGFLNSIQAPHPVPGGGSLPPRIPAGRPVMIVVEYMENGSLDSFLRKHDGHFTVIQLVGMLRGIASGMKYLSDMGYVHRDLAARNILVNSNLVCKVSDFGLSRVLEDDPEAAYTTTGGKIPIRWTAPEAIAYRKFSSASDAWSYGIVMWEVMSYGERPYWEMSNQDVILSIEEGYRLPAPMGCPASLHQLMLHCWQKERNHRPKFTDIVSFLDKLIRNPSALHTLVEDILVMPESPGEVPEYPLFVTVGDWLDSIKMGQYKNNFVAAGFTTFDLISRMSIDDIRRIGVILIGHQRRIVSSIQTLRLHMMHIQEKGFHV

- % inhibition (LTK): 87%
- inhibition at 1 µM (STK33): -3%
- Crizotinib % occupancy, 1 uM (NTRK2): 85 ± 2.3%
- Crizotinib % occupancy, 1 uM (EPHA6): 64 ± 5.1%
- Crizotinib % occupancy, 1 uM (AURKC): 48 ± 4.2%
- inhibition at 1 µM (STK17B): 0%
- inhibition at 1 µM (MAP3K9): -1%
- inhibition at 1 µM (LCK): 36%
- inhibition at 1 µM (WEE1): -9%
- inhibition at 1 µM (FGFR2): 10%
- inhibition at 1 µM (CDK7): 32%
- inhibition at 1 µM (TNK2): 13%
- inhibition at 1 µM (PRKACB): 5%
- inhibition at 1 µM (STK38L): 5%
- inhibition at 1 µM (PLK2): 4%
- inhibition at 1 µM (ABL2): 43%
SMILES: C[C@@H](Oc1cc(-c2cnn(C3CCNCC3)c2)cnc1N)c1c(Cl)ccc(F)c1Cl [crizotinib]
